EP2108954A1, “A test system for detecting intracellular cyclic nucleotide level and methods and uses thereof” (Max-Planck-Gesellschaft zur Förderung der Wissenschaften …, priority 2008, dated 2009)

Molecular target: T1, Or22a and Or83b (Drosophila melanogaster, UniProt P81909+Q9VNB5)
T1 construct: expressed in transfected cells; host or cells: HEK293
T1 sequence (P81909 1-397): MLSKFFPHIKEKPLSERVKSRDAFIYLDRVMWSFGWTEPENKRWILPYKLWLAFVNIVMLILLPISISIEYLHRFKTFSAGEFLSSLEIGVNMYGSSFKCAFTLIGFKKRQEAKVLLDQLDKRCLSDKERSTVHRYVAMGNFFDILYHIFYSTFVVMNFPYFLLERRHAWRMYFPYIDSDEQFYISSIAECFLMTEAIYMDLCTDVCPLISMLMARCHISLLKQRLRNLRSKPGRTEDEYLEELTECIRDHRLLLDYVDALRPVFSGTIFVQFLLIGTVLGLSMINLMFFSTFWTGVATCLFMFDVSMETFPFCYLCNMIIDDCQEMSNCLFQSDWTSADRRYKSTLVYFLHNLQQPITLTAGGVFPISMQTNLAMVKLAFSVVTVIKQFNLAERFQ
T1 sequence (Q9VNB5 1-486): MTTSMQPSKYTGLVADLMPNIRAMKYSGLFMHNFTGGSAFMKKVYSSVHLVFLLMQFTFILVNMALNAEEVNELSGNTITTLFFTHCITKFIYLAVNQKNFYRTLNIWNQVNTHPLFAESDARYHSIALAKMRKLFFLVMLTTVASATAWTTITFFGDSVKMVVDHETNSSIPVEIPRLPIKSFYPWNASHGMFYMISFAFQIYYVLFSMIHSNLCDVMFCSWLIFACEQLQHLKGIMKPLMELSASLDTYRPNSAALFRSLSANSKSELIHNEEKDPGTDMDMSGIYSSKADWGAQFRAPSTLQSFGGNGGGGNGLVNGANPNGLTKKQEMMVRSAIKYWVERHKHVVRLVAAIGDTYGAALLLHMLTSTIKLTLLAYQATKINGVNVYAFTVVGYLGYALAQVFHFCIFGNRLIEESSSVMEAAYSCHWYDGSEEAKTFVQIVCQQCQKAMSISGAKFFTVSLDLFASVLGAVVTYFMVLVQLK
Experiment: Outside-out patch recording from HEK293 cells coexpressing Or22a and Or83b
Format: cell-based
Conditions: Etb 100 nM, 1 s, -60 mV; for Ii Peak size / Ii Peak time / Ii Recov. / Im Latency / Im Peak size / Im Peak time / Im Recov.: Or22a C-terminal GFP fusion protein
Description: HEK293 cells were cultured as described by Wicher and colleagues (Wicher et al., J. Biol. Chem. 281, 3227-36 (2006)). In brief, HEK293 cells were cultured at a density of ∼2*10^4 per 35-mm dish and transfected with 1 µg pcDNA3-DOR22a-GFP and 1 µg pcDNA3-DOR83b-GFP (Neuhaus, et al., Nat. Neurosci. 8, 15-17 (2005); DNAs were a generous gift of Dr. E. Neuhaus and Dr. H. Hatt) using Roti-Fect transfection kit (Roth, Karlsruhe, Germany). In some experiments we transfected cells with pcDNA3-DOR22a-GFP or pcDNA3-DOR83b-GFP alone. We also examined the properties of DOR47a, which was cloned, using standard molecular biology methods into a pcDNA3.1(-) expression vector. To test for putative G-protein coupling, cells were transfected with the respective OR-DNA together with 1.5 µg hHCN2/pcDNA3 (provided by M. Biel, Munich, Germany), with 1 µg hKCNQ4/pcDNA3.1 or with 1 µg hCNGA2/pCMV6-XL4 (Origene, Rockville, MD, USA).
Ion currents in HEK293 cells were measured with the patch-clamp technology as described (Wicher et al, J. Biol. Chem. 281, 3227-36 (2006)). In brief, ion currents in HEK293 cells were measured at room temperature using whole-cell patch-clamp with appropriate compensation of series resistance and of capacitive currents. Additional experiments were performed in the outside-out configuration. Current measurements and data acquisition were performed using an EPC9 patch-clamp amplifier controlled by PatchMaster software (both HEKA Elektronik, Lambrecht, Germany). Patch-clamp pipettes were fabricated from borosilicate capillaries. Pipettes for whole-cell recordings had resistances of 2-4 MΩ for excised-patch recordings the pipette resistance was up to 15 MΩ.
The standard pipette solution contained (in mM) 140 KCl, 4 NaCl, 2.2 CaCl2, 2 Mg-ATP, 0.05 Na-GTP, 5 EGTA, 10 HEPES (pH 7.3), and the standard bath solution contained (in mM) 135 NaCl, 5 KCI, 1 CaCl2, 1 MgCl2, 10 HEPES, 10 glucose (pH 7.4). To differentiate between ionotropic and metabotropic pathways of receptor activation (Fig. 2a-d) the pipette solution contained either 2 mM ATP plus 2 mM GTP or 2 mM ADP plus 2 mM GDP (both for whole-cell and outside-out configuration). For the preparation of Cl^--free solutions the chloride salts were substituted by gluconate salts. The pipette Cs^+ solution contained (in mM) 140 CsCl, 1 Mg-ATP, 10 EGTA, 10 HEPES (pH = 7.3), and the Cs^+ bath solution contained (in mM) 140 CsCl, 15 glucose, 15 HEPES (pH = 7.4). The Ca^2+-free bath solution contained (in mM) 140 NaCl, 15 glucose, 15 HEPES, and the Na^+-free bath solution contained (in mM) 140 NMDG-Cl, 10 CaCl2, 10 glucose, 15 HEPES.
With the exception of GDP-γ-S, which was applied via the patch pipette, all substances were applied to the bath using either a bath perfusion system (BPS4 from ALA, New York, USA) or a rapid solution changer (RSC160 from Biologic, Claix, France) which were controlled by the PatchMaster software (HEKA Elektronik).

Question: Which results are given for `CCCC(=O)OCC` [Etb, ethyl butyrate]?
Answer: latency of Ii: < 0.5 s; Ii Peak size (ADP and GDP (-)): 1.6 ± 0.3 pA; Ii Peak time (ADP and GDP (-)): 1.38 ± 0.23 s; Ii Recov. (ADP and GDP (-)): 4.5 ± 1.2 s; Im Latency (ADP and GDP (-)): 11 ± 3 s; Im Peak size (ADP and GDP (-)): 0.5 ± 0.2 pA; Im Peak time (ADP and GDP (-)): 36 ± 8 s; Im Recov. (ADP and GDP (-)): 58 ± 9 s; Ii Peak size (ATP and GTP (+)): 1.3 ± 0.3 pA; Ii Peak time (ATP and GTP (+)): 1.13 ± 0.11 s; Ii Recov. (ATP and GTP (+)): 5.2 ± 1.1 s; Im Latency (ATP and GTP (+)): 10 ± 2 s; Im Peak size (ATP and GTP (+)): 1.7 ± 0.4 pA; Im Peak time (ATP and GTP (+)): 33 ± 4 s; Im Recov. (ATP and GTP (+)): 45 ± 7 s
